{"source": "patent US20240033321A1", "about": "“PULSATIVE GNRH ADMINISTRATION FOR TREATING FOOD INTAKE RELATED DISORDERS” (INSTITUT NATIONAL DE LA SANTÉ ET DE LA RECHERCHE MÉDICALE, priority 2020, published 2024)", "key": {"[1]": {"assay": "Pulsatile Lutrelef infusion by subcutaneous programmable mini-pump in obese and lean mice, food intake followed daily", "format": "in vivo", "conditions": "14 days", "method": "Adult lean and obese male mice were housed under specific pathogen-free conditions in a temperature-controlled room (21-22° C.) with a 12 h light/dark cycle. Animals were provided with ad libitum access to food and water. The body weight of the animals and their food intake were followed on a daily base. Animal studies were approved by the Institutional Ethics Committee for the Care and Use of Experimental Animals of the University of Lille; all experiments were performed in accordance with the guidelines for animal use specified by the European Union Council Directive of Sep. 22, 2010 (2010/63/EU). […] To restore a control/lean pattern of GnRH/LH release in obese mice, we next implanted subcutaneous programmable mini-pumps that delivered either Lutrelef (0.25 μg of GnRH per pulse over 10 min given every 3 h) or vehicle to the mice (i.e., the pattern of secretion found in lean mice). Lutrelef is a native GnRH peptide that is clinically used to successfully treat hypogonadotropic infertility (23,24). The regimen was given for 14-days, during which body weight and food intake were followed daily."}, "[2]": {"assay": "Pulsatile Lutrelef delivery by minipump in a Gnrh::Cre; iBot sensitive (overlean) male mouse", "format": "in vivo, mice", "conditions": "one sensitive male (n=1), one pulse every 3 h"}, "[3]": {"assay": "Pulsatile Lutrelef delivery by minipump in Gnrh::Cre; iBot sensitive (overweight) female mice", "format": "in vivo", "conditions": "sensitive females"}}}
{"smiles": "CC(C)C[C@H](NC(=O)CNC(=O)[C@H](Cc1ccc(O)cc1)NC(=O)[C@H](CO)NC(=O)[C@H](Cc1c[nH]c2ccccc12)NC(=O)[C@H](Cc1cnc[nH]1)NC(=O)[C@@H]1CCC(=O)N1)C(=O)N[C@@H](CCCNC(=N)N)C(=O)N1CCC[C@H]1C(=O)NCC(N)=O", "note": "[Lutrelef]", "values": [{"measurement": "amount of food eaten", "setting": "[1]; lean mice, same pulsatile regimen, compared with vehicle-infused littermates (FIG. 9)", "result": "no observable effect"}, {"measurement": "cumulative food intake", "setting": "[1]; obese male mice, 0.25 μg of GnRH per pulse over 10 min every 3 h, compared with lean mice (FIG. 9)", "result": "normalised their cumulative food intake to levels comparable with lean mice"}, {"measurement": "bodyweight", "setting": "[2]; 15 days (FIG. 11A)", "result": "fully rescues bodyweight"}, {"measurement": "increase in food intake", "setting": "[2]; 15 days (FIGS. 11B, 11C)", "result": 15, "unit": "%"}, {"measurement": "substrate use from RER data", "setting": "[3]; dark phase (feeding period) (FIG. 10B)", "result": "restores the use of carbohydrates during the dark phase"}, {"measurement": "bodyweight", "setting": "[3]; one pulse every 2 h, 15 days (FIG. 10A)", "result": "decreased body weight"}, {"measurement": "respiratory exchange ratio (RER)", "setting": "[3]; one pulse every 2 h, 15 days (FIGS. 10B, 10C)", "result": "normalised"}, {"measurement": "food intake", "setting": "[3]; one pulse every 2 h, 15 days (FIGS. 10D, 10E)", "result": "normalised"}]}
